The compounds below were run against T1, IGFR kinase (Homo sapiens, UniProt P08069) (assay: Enzyme assay (c), IGFR kinase, Caliper LabChip). Conditions: 30 nM IGFR kinase, 6 uM ATP, 3 uM peptide mix; read-out: IGFR IC50.
T1 construct: purchased Millipore
Assay type: biochemical

T1 sequence (P08069 31-1367): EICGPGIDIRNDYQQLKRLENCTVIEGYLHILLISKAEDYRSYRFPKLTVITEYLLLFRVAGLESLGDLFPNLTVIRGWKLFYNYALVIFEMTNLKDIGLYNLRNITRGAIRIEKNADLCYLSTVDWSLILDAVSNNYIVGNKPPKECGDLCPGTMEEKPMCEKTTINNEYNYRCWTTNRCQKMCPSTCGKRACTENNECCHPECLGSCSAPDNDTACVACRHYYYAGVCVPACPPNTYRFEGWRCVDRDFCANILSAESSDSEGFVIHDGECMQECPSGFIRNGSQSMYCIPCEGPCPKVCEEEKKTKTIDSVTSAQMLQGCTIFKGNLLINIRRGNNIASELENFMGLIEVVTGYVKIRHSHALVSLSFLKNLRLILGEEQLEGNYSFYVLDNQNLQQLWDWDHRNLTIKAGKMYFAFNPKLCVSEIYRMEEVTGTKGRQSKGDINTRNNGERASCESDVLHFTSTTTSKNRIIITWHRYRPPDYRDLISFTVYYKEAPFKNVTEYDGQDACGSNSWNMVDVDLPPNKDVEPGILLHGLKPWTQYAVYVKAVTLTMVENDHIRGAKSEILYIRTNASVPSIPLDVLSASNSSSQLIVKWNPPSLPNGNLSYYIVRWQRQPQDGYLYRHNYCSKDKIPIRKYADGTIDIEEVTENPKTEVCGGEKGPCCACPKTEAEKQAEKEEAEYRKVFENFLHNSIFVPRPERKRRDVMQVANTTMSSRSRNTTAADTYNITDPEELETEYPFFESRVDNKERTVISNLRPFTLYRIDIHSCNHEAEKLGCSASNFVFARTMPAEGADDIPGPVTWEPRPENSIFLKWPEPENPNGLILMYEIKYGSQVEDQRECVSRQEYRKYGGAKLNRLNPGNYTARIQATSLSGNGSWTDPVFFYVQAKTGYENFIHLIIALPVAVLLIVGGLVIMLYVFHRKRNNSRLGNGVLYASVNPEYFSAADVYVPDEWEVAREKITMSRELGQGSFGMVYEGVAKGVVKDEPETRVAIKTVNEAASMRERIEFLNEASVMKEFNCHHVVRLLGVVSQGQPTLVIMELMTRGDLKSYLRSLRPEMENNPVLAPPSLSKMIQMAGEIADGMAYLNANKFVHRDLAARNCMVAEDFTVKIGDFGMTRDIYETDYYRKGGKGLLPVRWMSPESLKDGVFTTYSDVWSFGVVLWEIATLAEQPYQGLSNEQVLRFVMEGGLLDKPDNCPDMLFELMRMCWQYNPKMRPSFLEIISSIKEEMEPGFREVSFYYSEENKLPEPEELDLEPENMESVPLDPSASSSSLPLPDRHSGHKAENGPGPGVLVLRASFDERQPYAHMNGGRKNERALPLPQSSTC

Row | SMILES | IC50 [µM]
1 | COc1cc(N2CCN(C[C@@H](C)O)CC2)ccc1Nc1ncc(Cl)c(-c2cnc3ccccn23)n1 [Example 51, (2R)-1-[4-[4-[(5-chloro-4-imidazo[1,2-a]pyridin-3-yl-pyrimidin-2-yl)amino]-3-methoxy-phenyl]piperazin-1-yl]propan-2-ol] | 0.008
2 | COc1cc(OC2CCN(C(C)=O)CC2)ccc1Nc1ncc(C)c(-c2cnc3ccccn23)n1 [Example 103, 1-[4-[4-[(4-imidazo[1,2-a]pyridin-3-yl-5-methyl-pyrimidin-2-yl)amino]-3-methoxy-phenoxy]-1-piperidyl]ethanone] | 0.077
3 | COc1cc(OC2CCN(C(=O)C(C)O)CC2)ccc1Nc1ncc(Cl)c(-c2cnc3ccccn23)n1 (centres unmarked) [Example 9, 1-[4-[4-[(5-chloro-4-imidazo[1,2-a]pyridin-3-yl-pyrimidin-2-yl)amino]-3-methoxy-phenoxy]-1-piperidyl]-2-hydroxy-propan-1-one] | 0.021
4 | COc1cc(N(CCO)CCO)ccc1Nc1ncc(Cl)c(-c2cnc3c(F)cccn23)n1 [Example 223, 2-[4-[[5-chloro-4-(8-fluoroimidazo[1,2-a]pyridin-3-yl)pyrimidin-2-yl]amino]-N-(2-hydroxyethyl)-3-methoxy-anilino]ethanol] | 0.006
5 | COc1cc(OCC(=O)N(C)C)ccc1Nc1ncc(Cl)c(-c2cnc3c(F)cccn23)n1 [Example 217, 2-[4-[[5-chloro-4-(8-fluoroimidazo[1,2-a]pyridin-3-yl)pyrimidin-2-yl]amino]-3-methoxy-phenoxy]-N,N-dimethyl-acetamide] | 0.01
6 | COc1cc(C2CCN(C(C)=O)CC2)ccc1Nc1ncc(OC)c(-c2cnc3ccccn23)n1 [Example 94, 1-[4-[4-[(4-imidazo[1,2-a]pyridin-3-yl-5-methoxy-pyrimidin-2-yl)amino]-3-methoxy-phenyl]-1-piperidyl]ethanone] | 0.136
7 | COc1cc(N2CCN(CCO)[C@@H](C)C2)ccc1Nc1ncc(F)c(-c2cnc3ccccn23)n1 [Example 273, 2-[(2S)-4-[4-[(5-fluoro-4-imidazo[1,2-a]pyridin-3-yl-pyrimidin-2-yl)amino]-3-methoxy-phenyl]-2-methyl-piperazin-1-yl]ethanol] | 0.21
8 | COc1cc(N2CCN(C[C@H](C)O)CC2)ccc1Nc1ncc(Cl)c(-c2cnc3ccccn23)n1 [Example 50, (2S)-1-[4-[4-[(5-chloro-4-imidazo[1,2-a]pyridin-3-yl-pyrimidin-2-yl)amino]-3-methoxy-phenyl]piperazin-1-yl]propan-2-ol] | 0.008
9 | CNCC(=O)N1CCN(c2ccc(OC)c(Nc3ncc(Cl)c(-c4cnc5ccccn45)n3)c2)CC1 [Example 145, 1-[4-[3-[(5-chloro-4-imidazo[1,2-a]pyridin-3-yl-pyrimidin-2-yl)amino]-4-methoxy-phenyl]piperazin-1-yl]-2-(methylamino)ethanone] | 0.059
10 | COc1ccc(N2CCNCC2)cc1Nc1ncc(F)c(-c2cnc3ccccn23)n1 [Example 75, 5-fluoro-4-imidazo[1,2-a]pyridin-3-yl-N-(2-methoxy-5-piperazin-1-yl-phenyl)pyrimidin-2-amine] | 0.172
11 | COc1cc(C2CCN(C(C)=O)CC2)ccc1Nc1ncc(C)c(-c2cnc3ccccn23)n1 [Example 99, 1-[4-[4-[(4-imidazo[1,2-a]pyridin-3-yl-5-methyl-pyrimidin-2-yl)amino]-3-methoxy-phenyl]-1-piperidyl]ethanone] | 0.024
12 | COc1cc(O[C@H]2CCN(C(=O)C(C)O)C2)ccc1Nc1ncc(Cl)c(-c2cnc3ccccn23)n1 (mixture of isomers) [Example 15, 1-[(3S)-3-[4-[(5-chloro-4-imidazo[1,2-a]pyridin-3-yl-pyrimidin-2-yl)amino]-3-methoxy-phenoxy]pyrrolidin-1-yl]-2-hydroxy-propan-1-one] | 0.012
13 | COc1cc(C2CN(C(C)=O)C2)ccc1Nc1ncc(Cl)c(-c2cnc3ccccn23)n1 [Example 277, 1-[3-[4-[(5-chloro-4-imidazo[1,2-a]pyridin-3-yl-pyrimidin-2-yl)amino]-3-methoxy-phenyl]azetidin-1-yl]ethanone] | 0.016
14 | COc1cc(N2CCCOCC2)ccc1Nc1ncc(Cl)c(-c2cnc3ccccn23)n1 [Example 3.48, 5-chloro-4-imidazo[1,2-a]pyridin-3-yl-N-[2-methoxy-4-(1,4-oxazepan-4-yl)phenyl]pyrimidin-2-amine] | 0.025
15 | COc1cc(N2CC3CN(CCO)CC(C2)O3)ccc1Nc1ncc(F)c(-c2cnn3ccccc23)n1 [Example 175, 2-[7-[4-[(5-fluoro-4-pyrazolo[1,5-a]pyridin-3-yl-pyrimidin-2-yl)amino]-3-methoxy-phenyl]-9-oxa-3,7-diazabicyclo[3.3.1]nonan-3-yl]ethanol] | 0.014
16 | COc1cc(OC[C@@H]2CCCN2C(C)=O)ccc1Nc1ncc(Cl)c(-c2cnc3ccccn23)n1 [Example 16, 1-[(2S)-2-[[4-[(5-chloro-4-imidazo[1,2-a]pyridin-3-yl-pyrimidin-2-yl)amino]-3-methoxy-phenoxy]methyl]pyrrolidin-1-yl]ethanone] | 0.032
17 | COc1cc(OC[C@H]2CCCN2)ccc1Nc1ncc(C)c(-c2cnc3ccccn23)n1 [Example 102, 4-imidazo[1,2-a]pyridin-3-yl-N-[2-methoxy-4-[[(2R)-pyrrolidin-2-yl]methoxy]phenyl]-5-methyl-pyrimidin-2-amine] | 0.054
18 | COc1cc(N2CCN(C(C)(C)CO)CC2)ccc1Nc1ncc(F)c(-c2cnc3ccccn23)n1 [Example 228, 2-[4-[4-[(5-fluoro-4-imidazo[1,2-a]pyridin-3-yl-pyrimidin-2-yl)amino]-3-methoxy-phenyl]piperazin-1-yl]-2-methyl-propan-1-ol] | 0.024
19 | COc1cc(N2CCNCC2)ccc1Nc1ncc(F)c(-c2cnn3ccccc23)n1 [Example 171, 5-fluoro-N-(2-methoxy-4-piperazin-1-yl-phenyl)-4-pyrazolo[1,5-a]pyridin-3-yl-pyrimidin-2-amine] | 0.017
20 | COc1cc(N2CCN(CCC#N)CC2)ccc1Nc1ncc(Cl)c(-c2cnc3ccccn23)n1 [Example 49, 3-[4-[4-[(5-chloro-4-imidazo[1,2-a]pyridin-3-yl-pyrimidin-2-yl)amino]-3-methoxy-phenyl]piperazin-1-yl]propanenitrile] | 0.014
21 | COc1cc(N2CCCOCC2)ccc1Nc1ncc(F)c(-c2cnc3ccccn23)n1 [Example 84, 5-fluoro-4-imidazo[1,2-a]pyridin-3-yl-N-[2-methoxy-4-(1,4-oxazepan-4-yl)phenyl]pyrimidin-2-amine] | 0.179
22 | COc1cc(N2CCN(C(=O)CO)CC2)ccc1Nc1ncc(Cl)c(-c2cnc3c(F)cc(F)cn23)n1 [Example 250, 1-[4-[4-[[5-chloro-4-(6,8-difluoroimidazo[1,2-a]pyridin-3-yl)pyrimidin-2-yl]amino]-3-methoxy-phenyl]piperazin-1-yl]-2-hydroxy-ethanone] | 0.007
23 | COc1cc(N2CCCC2C(=O)N2CCOCC2)ccc1Nc1ncc(Cl)c(-c2cnc3ccccn23)n1 (centres unmarked) [Example 3.2, [1-[4-[(5-chloro-4-imidazo[1,2-a]pyridin-3-yl-pyrimidin-2-yl)amino]-3-methoxy-phenyl]pyrrolidin-2-yl]-morpholino-methanone] | 0.054
24 | COc1cc(C2CCN(C(=O)CO)CC2)ccc1Nc1ncc(Cl)c(-c2cnn3ccccc23)n1 [Example 137, 1-[4-[4-[(5-chloro-4-pyrazolo[1,5-a]pyridin-3-yl-pyrimidin-2-yl)amino]-3-methoxy-phenyl]-1-piperidyl]-2-hydroxy-ethanone] | 0.003

Other lines, results leading:

Row | IC50 [µM] | SMILES
25 | 0.026 | COc1cc(CN[C@H](C)CO)ccc1Nc1ncc(Cl)c(-c2cnc3ccccn23)n1 [Example 21.15, (2R)-2-[[4-[(5-chloro-4-imidazo[1,2-a]pyridin-3-yl-pyrimidin-2-yl)amino]-3-methoxy-phenyl]methylamino]propan-1-ol]
26 | 0.014 | COc1cc(O[C@H]2CCNC2)ccc1Nc1ncc(Cl)c(-c2cnc3ccccn23)n1 [Example 6.6, 5-chloro-4-imidazo[1,2-a]pyridin-3-yl-N-[2-methoxy-4-[(3S)-pyrrolidin-3-yl]oxy-phenyl]pyrimidin-2-amine]
27 | 0.008 | COc1cc(N2CCN(C(=O)[C@H]3CCCCN3)CC2)ccc1Nc1ncc(Cl)c(-c2cnc3ccccn23)n1 [Example 24.1, [4-[4-[(5-chloro-4-imidazo[1,2-a]pyridin-3-yl-pyrimidin-2-yl)amino]-3-methoxy-phenyl]piperazin-1-yl]-[(2R)-2-piperidyl]methanone]
28 | 0.022 | COc1cc(OC2CN(C(=O)CO)C2)ccc1Nc1ncc(Cl)c(-c2cnc3ccccn23)n1 [Example 27.3, 1-[3-[4-[(5-chloro-4-imidazo[1,2-a]pyridin-3-yl-pyrimidin-2-yl)amino]-3-methoxy-phenoxy]azetidin-1-yl]-2-hydroxy-ethanone]
29 | 0.015 | COc1cc(N2CCN(C(C)=O)CC2)ccc1Nc1ncc(Cl)c(-c2cnc3cc(Br)ccn23)n1 [Example 126.19, 1-[4-[4-[[4-(7-bromoimidazo[1,2-a]pyridin-3-yl)-5-chloro-pyrimidin-2-yl]amino]-3-methoxy-phenyl]piperazin-1-yl]ethanone]
30 | 0.031 | COc1cc(CN2CCC(C(N)=O)CC2)ccc1Nc1ncc(Cl)c(-c2cnc3ccccn23)n1 [Example 21.7, 1-[[4-[(5-chloro-4-imidazo[1,2-a]pyridin-3-yl-pyrimidin-2-yl)amino]-3-methoxy-phenyl]methyl]piperidine-4-carboxamide]
31 | 0.017 | COc1cc(C2CCN(C(C)=O)C(C)C2)ccc1Nc1ncc(Cl)c(-c2cnc3ccccn23)n1 (centres unmarked) [Example 59.1, 1-[4-[4-[(5-chloro-4-imidazo[1,2-a]pyridin-3-yl-pyrimidin-2-yl)amino]-3-methoxy-phenyl]-2-methyl-1-piperidyl]ethanone]
32 | 0.009 | COc1cc(N2CCN(C(=O)[C@@H](C)OC)CC2)ccc1Nc1ncc(Cl)c(-c2cnc3ccccn23)n1 [Example 25.5, (2R)-1-[4-[4-[(5-chloro-4-imidazo[1,2-a]pyridin-3-yl-pyrimidin-2-yl)amino]-3-methoxy-phenyl]piperazin-1-yl]-2-methoxy-propan-1-one]
